Values quoted from earlier work as cited in publication PMC6137088, “The Role of Outer Membrane Proteins and Lipopolysaccharides for the Sensitivity of Escherichia coli to Antimicrobial Peptides” (Frontiers in Microbiology, 2018).

Legend:
[1] = test system: uropathogenic E. coli CFT073ΔompT; conditions: ref Brannon et al., 2013; cited from earlier work
Source text: (§1) Bacterial pathogens have evolved different mechanisms to resist the antimicrobial activity of cationic AMPs (Peschel and Sahl, [2006]). The production of proteases degrading and thereby inactivating cationic AMPs is one obvious way for bacteria to protect themselves against antimicrobials. Several omptins such as OmpT, and PgtE, all proteases found in the OM of various Gram-negative pathogens belonging to the Enterobacteriaceae family, have been associated with the degradation of AMPs (Hritonenko and Stathopoulos, [2007]). In particular, OmpT has been implicated in the proteolytic degradation ...

[2] = test system: enterohemorrhagic E. coli EHEC EDL933; conditions: ref Thomassin et al., 2012; cited from earlier work
Source text: as §1

[3] = test system: enteropathogenic E. coli EPEC E2348/69 ΔompT; conditions: ref Thomassin et al., 2012; cited from earlier work
Source text: as §1

LL-37
change of MIC in CFT073ΔompT compared to wild-type CFT073 [1]: unchanged
decrease of MIC by loss of OmpT in EHEC EDL933 (factor) [2]: 2
decrease in MIC in the ΔompT mutant compared to parental EPEC E2348/69 (factor) [3]: unchanged
